Laboratory results taken from paper PMC8286817, “Identifying SARS-CoV-2 antiviral compounds by screening for small molecule inhibitors of Nsp14 RNA cap methyltransferase” (Biochemical Journal, 2021).
Read-outs that look alike come from different tables or passages of the source.

Key:
Vero E6 cells = test: Cell viability by DNA staining (DRAQ7) in the viral infection assay; format: cell-based; details: 22 h post infection
Experimental: We assayed expression of the viral N protein as a surrogate for viral replication by infecting cells with a constant amount of SARS-CoV-2 in the presence of inhibitor. We then quantified viral replicative capacity in fixed cells 22 h post-infection using a fluorescent anti-nucleoprotein antibody.
1.5 × 10^3 Vero E6 cells (NIBC, U.K.) resuspended in DMEM containing 10% FBS were seeded into each well of 96-well imaging plates (Greiner 655090) and cultured overnight at 37°C and 5% CO2. The next day, a 5× solution of compounds were generated by dispensing 10 mM stocks of compounds into a v-bottom 96-well plate (Thermo 249946) and back filling with DMSO to equalise the DMSO concentration in all wells using an Echo 550 (Labcyte) before resuspending in DMEM containing 10% FBS. […] Finally, the cells were infected by adding 20 µl of SARS-CoV2 with a final MOI of 0.5 PFU/cell. 22 h post infection, cells were fixed, permeabilised, and stained for SARS-CoV2 N protein using Alexa488-labelled-CR3009 antibody produced custom (see section for Recombinant mAb production) and cellular DNA using DRAQ7 (ABCAM). Whole-well imaging at 5× was carried out using an Opera Phenix (PerkinElmer) and fluorescent areas and intensity calculated using the Phenix-associated software Harmony (PerkinElmer).

[1] = biological target: O-6′-methylguanine-DNA methyltransferase, MGMT; parameters: method as in PMID 16533784; details: read-out: IC50 against MGMT; cited from earlier work
SARS-CoV-2 [2] = test: microbe, parasite or virus in culture; format: cell-based
SARS-CoV-2 [3] = details: remdesivir at 1 µM and below; cited from earlier work
[4] = biological target: nsp10–16 fusion 2′-O-methyltransferase (Severe acute respiratory syndrome coronavirus 2, UniProt P0DTD1); format: biochemical, SARS-CoV-2
SIRT1 = tested on: SIRT1; parameters: method as in PMID 22331558; details: read-out: IC50 against SIRT1; cited from earlier work
[5] = Severe acute respiratory syndrome coronavirus 2, Vero C1008, Vero E6 cells, MOI 0.5 PFU/cell, 22 h, in additional presence of 0.5 µM remdesivir, read-out: EC50 + Rem. of viral replication (viral nucleoprotein area)
[6] = Vero E6 cells, 0.5 µM remdesivir versus compound alone

Compound: Nc1nc(OCc2cc(Br)cs2)c2[nH]cnc2n1 [Lomeguatrib]
- Cytotoxicity at effective / EC50 concentrations (DNA staining) (Vero E6 cells): slight cytotoxicity
- IC50 [1]: ~0.005 µM
- EC50 (SARS-CoV-2 [2]; Severe acute respiratory syndrome coronavirus 2, Vero C1008, 22 h, read-out: EC50 of viral replication (viral nucleoprotein area)): 59.8 µM
- EC50 (SARS-CoV-2 [2]; [5]): 44.1 µM
- EC50 reduction when combined with remdesivir (SARS-CoV-2 [2]; [6]): ~27%

Compound: N#Cc1ccc(N2N=C3c4ccc(C(=O)O)cc4CC[C@@H]3[C@@H]2C2CCCC2)cc1Cl [PF-03882845]
- EC50 reduction when combined with remdesivir (SARS-CoV-2 [2]): ~56%
- EC50 (SARS-CoV-2 [2]; read-out: EC50 + Rem. of viral replication (viral nucleoprotein area)): 4.79 µM
- EC50 (SARS-CoV-2 [2]; read-out: EC50 of viral replication (viral nucleoprotein area)): 11 µM

Compound: O=C(CCCN1CCC(O)(c2cccc(C(F)(F)F)c2)CC1)c1ccc(F)cc1 [Trifluperidol]
- Cytotoxicity at effective / EC50 concentrations (DNA staining) (Vero E6 cells): little to no cytotoxicity
- EC50 (SARS-CoV-2 [2]; [5]): 5.05 µM
- EC50 (SARS-CoV-2 [2]; Severe acute respiratory syndrome coronavirus 2, Vero C1008, Vero E6 cells, MOI 0.5 PFU/cell, 22 h post infection, read-out: EC50 of viral replication (viral nucleoprotein area)): 14.9 µM
- EC50 reduction when combined with remdesivir (SARS-CoV-2 [2]; [6]): ~66%

Compound: CCC(CC)COC(=O)[C@H](C)N[P@](=O)(OC[C@H]1O[C@@](C#N)(c2ccc3c(N)ncnn23)[C@H](O)[C@@H]1O)Oc1ccccc1 [remdesivir]
- Capacity to reduce viral titre in Vero E6 cells (SARS-CoV-2 [3]): limited capacity to reduce viral titre

Compound: Nc1ncnc2c1ncn2[C@@H]1O[C@H](C[C@@H](N)CC[C@H](N)C(=O)O)[C@@H](O)[C@H]1O [sinefungin]
- Inhibition of nsp10–16 methyltransferase (normalised HTRF) [4]: able to inhibit methyltransfer by nsp10–16

Compound: Inauhzin
- IC50 (SIRT1): ~1 µM
- Cytotoxicity at effective / EC50 concentrations (DNA staining) (Vero E6 cells): little to no cytotoxicity
- EC50 reduction when combined with remdesivir (SARS-CoV-2 [2]; [6]): no increased inhibitory capacity
- EC50 (SARS-CoV-2 [2]; Vero E6 cells, MOI 0.5 PFU/cell, 22 h, in additional presence of 0.5 µM remdesivir, read-out: EC50 + Rem. of viral replication (viral nucleoprotein area)): 11.2 µM
- EC50 (SARS-CoV-2 [2]; Vero E6 cells, MOI 0.5 PFU/cell, 22 h post infection, read-out: EC50 of viral replication (viral nucleoprotein area)): 13 µM
